Assay results reported in ChEMBL document CHEMBL1149012, “Effects of phenolic constituents from the mulberry tree on arachidonate metabolism in rat platelets” (J Nat Prod, 1986).
The source made the active and inactive calls. No cut-off for these calls is given here.

Key:
Platelet [1] = assay: Stimulation of 12-hydroxy-5,8,10,14-eicosatetraenoic acid formation in Wistar King platelets at 10 uM; assay type: functional, cell-based; details: Rattus norvegicus
Platelet [2] = assay: Stimulation of 12-hydroxy-5,8,10,14-eicosatetraenoic acid formation in Wistar King platelets; assay type: functional, cell-based; details: Rattus norvegicus
Platelet [3] = assay: Inhibition of 12-hydroxy-5,8,10-heptadecatrienoic acid formation in Wistar King platelets; assay type: functional, cell-based; details: Rattus norvegicus
Platelet [4] = assay: Inhibition of thromboxane B2 formation in Wistar King platelets; assay type: functional, cell-based; details: Rattus norvegicus
Platelet [5] = assay: Stimulation of 12-hydroxy-5,8,10,14-eicosatetraenoic acid formation in Wistar King platelets at 1 mM; assay type: functional, cell-based; details: Rattus norvegicus
Platelet [6] = assay: Inhibition of 12-hydroxy-5,8,10,14-eicosatetraenoic acid formation in Wistar King platelets; assay type: functional, cell-based; details: Rattus norvegicus
Platelet [7] = assay: Inhibition of 12-hydroxy-5,8,10,14-eicosatetraenoic acid formation in Wistar King platelets at 1 mM; assay type: functional; details: Rattus norvegicus
Platelet [8] = assay: Inhibition of 12-hydroxy-5,8,10-heptadecatrienoic acid formation in Wistar King platelets at 1 mM; assay type: functional; details: Rattus norvegicus
Platelet [9] = assay: Inhibition of thromboxane B2 formation in Wistar King platelets at 1 mM; assay type: functional; details: Rattus norvegicus
Platelet [10] = assay: Inhibition of 12-hydroxy-5,8,10,14-eicosatetraenoic acid formation in Wistar King platelets at 0.1 mM; assay type: functional; details: Rattus norvegicus, values are per cent of control
Platelet [11] = assay: Stimulation of 12-hydroxy-5,8,10,14-eicosatetraenoic acid formation in Wistar King platelets at 0.1 mM; assay type: functional, cell-based; details: Rattus norvegicus

IC50 (Platelet [3]) [µM] | IC50 (Platelet [4]) [µM] | Compound | Activity (Platelet [1]) | Activity (Platelet [2]) | Activity (Platelet [5]) | inhibition at 1000 µM (Platelet [7]) [%] | other results
112 | 180 | CC(C)=CC[C@]12Oc3cc(O)c([C@H]4C=C(C)C[C@H](c5ccc(O)cc5O)[C@H]4C(=O)c4ccc(O)cc4O)c(O)c3C(=O)[C@@]1(O)Oc1cc(O)ccc12 [SANGGENON C] | Active | Active | Active |  | 
10.7 | 34.7 | CC1=C[C@H]2c3c(O)cc(-c4cc5ccc(O)cc5o4)cc3O[C@@]3(c4ccc(O)cc4O)Oc4cc(O)ccc4[C@H](C1)[C@@H]23 [MULBERROFURAN G] |  |  |  |  | IC50 (Platelet [6]): 89 µM
 |  | CC(C)=CCc1c(-c2ccc(O)cc2O)oc2c([C@H]3Oc4cc(O)c5c(=O)c(CC=C(C)C)c(-c6ccc(O)cc6O)oc5c4[C@@H]4C=C(C)CC(C)(C)[C@H]34)c(O)cc(O)c2c1=O [KUMANON M] |  |  |  | 68 | inhibition at 1000 µM (Platelet [8]): 81.5%; inhibition at 1000 µM (Platelet [9]): 87.3%
36.3 | 50.7 | CC1=C[C@H](c2c(O)cc(-c3cc4ccc(O)cc4o3)cc2O)[C@@H](C(=O)c2ccc(O)cc2O)[C@H](c2ccc(O)cc2O)C1 [MULBERROFURAN J] |  |  |  | 35.5 | IC50 (Platelet [6]): 823 µM; residual activity at 100 µM (Platelet [10]): 194%; Activity (Platelet [11]): Active
89.3 | 132 | CC(C)=CCc1c(-c2ccc(O)cc2O)oc2c([C@H]3C=C(C)C[C@@H](c4ccc(O)cc4O)[C@@H]3C(=O)c3ccc(O)cc3O)c(O)cc(O)c2c1=O [KUMANON G] | Active | Active | Active |  | 
227 | 355 | CC12C[C@@H](c3ccc(O)cc3O1)C13OC1(c1ccc(O)cc1O)Oc1cc(-c4cc5ccc(O)cc5o4)cc(O)c1C3C2=O (stereo not given in full) [MULBERROFURAN Q] | Active | Active | Active |  | 
 |  | OC[C@H]1O[C@@H](Oc2cc(O)cc(/C=C/c3ccc(O[C@@H]4O[C@H](CO)[C@@H](O)[C@H](O)[C@H]4O)cc3O)c2)[C@H](O)[C@@H](O)[C@@H]1O |  |  |  |  | Activity (Platelet [6]): inactive; Activity (Platelet [3]): inactive; Activity (Platelet [4]): inactive
43.3 | 48.3 | CC(C)=CCC12Oc3cc(O)ccc3C1(O)Oc1cc(O)c([C@H]3C=C(C)C[C@@H](c4ccc(O)cc4O)[C@@H]3C(=O)c3ccc(O)cc3O)c(O)c1C2=O (stereo not given in full) [SANGGENON D] |  |  |  | 51 | residual activity at 100 µM (Platelet [10]): 256%; Activity (Platelet [11]): Active

Compound | IC50 (Platelet [3]) [µM] | IC50 (Platelet [4]) [µM] | Activity (Platelet [1]) | Activity (Platelet [2]) | Activity (Platelet [5]) | inhibition at 1000 µM (Platelet [7]) [%] | other results
CC(C)=CCc1c(O)ccc(C(=O)[C@@H]2[C@@H](c3c(O)cc(O)c4c(=O)c(CC=C(C)C)c(-c5ccc(O)cc5O)oc34)C=C(C)C[C@H]2c2ccc(O)cc2O)c1O [KUMANON H] | 24 | 75.7 | Active | Active | Active |  | 
